{"source": "patent US7855188B2", "about": "“Quarternized amino glucosamine compound for exerting anticancer effect” (Pukyong National University Industry-Academic Cooperation …, priority 2006, dated 2010)", "key": {"p53": {"tested_on": "p53", "test": "RT-PCR of p53 mRNA", "assay_type": "cell-based, mouse", "details": "B16F1 cells", "description": "(§1) B16F1 cells were treated with QAGlc and total RNA was extracted. PCR was carried out using RT-generated cDNA encoding p53, p21 and GSPDH with their specific primers to amplify p53 and G3PDH mRNA. PCR products were analyzed on a 2% agarose gel. The mRNA of G3PDH served as an internal control for sample loading and mRNA integrity. The result was represented in FIG. 5."}, "B16F1 cells [1]": {"tested_on": "B16F1 cells", "test": "FACS analysis of apoptotic cells", "assay_type": "cell-based, mouse"}, "B16F1 cells [2]": {"tested_on": "B16F1 cells", "test": "MTT cytotoxicity assay in B16F1 cells", "assay_type": "cell-based, mouse", "details": "after 48 h of incubation, concentrations below 0.01%", "description": "(§2) In order to assay the cell cytotoxicity of glucosamine and quaternized amino glucosamine on colon cancer cell (SW480), lung cancer cell (A549), mouse melanoma cell (B16F1), leukemia cancer cell (HL60) and liver cancer cell (Hep3B), MTT assay was performed with different sample concentrations and incubation time intervals.\n(§3) Cells were cultured in microtiter 96-well plates with serum free media and treated with different sample concentrations for varying time intervals and anticancer effect was assessed using MTT cell viability assay. The result was represented in FIG. 2. […] Moreover, the effect was concentration dependent.\nB16F1 cells were treated with different concentrations of quaternized amino glucosamine and cytotoxicity was determined using MTT assay. […] This effect could be confirmed when the B16F1 cells were transfected with promoter plasmids of p53 and p21 treated with different concentrations of QAGlc. Induction of phosphor p53 observed in western blot analysis further confirmed that quaternized amino glucosamine induce apoptosis via p53 dependant pathway."}, "p21 gene": {"tested_on": "p21 gene", "test": "p21-Luc gene reporter assay", "assay_type": "cell-based, mouse", "details": "B16F1 cells; all concentrations; compared to the control", "description": "(§4) B16F1 cells were transfected with p53-luc, p21-Luc reporter vectors and β-galactosidase expression vector by lipofectamine (Invitrogen) transfection method. After 24 h of transfection, cells were subcultured into 24 well plates and cells treated with different concentrations of QAGlc. The luciferase activity value was normalized to transfection efficiency monitored by the cotransfected β-galactosidase expression vector. The level of induction of luciferase was determined as a ratio in comparison to cells with no stimulation. The result was represented in FIG. 6.\nAccording to the method described above, p21 gene was transfected to B16F1 cells according to the method described above and gene expression after the treatment of QAGlc was determined by relative luciferase activity. The result was represented in FIG. 7."}, "phospho p53 protein": {"tested_on": "phospho p53 protein", "test": "Western blot analysis of phospho p53", "assay_type": "cell-based, mouse", "details": "B16F1 cells; different time intervals", "description": "After treatment of QAGlc for different time intervals, cells were lysed in RIPA buffer [10 mmol Tris-HCL (pH 7.4), 1% deoxycholate, 1% NP40, 150 mmol NaCl, 0.1% SDS, 0.2 mmol phenylmethyl sulfonyl fluoride, 1 mg/L aprotinin and 1 mg/L leupeptin] for 30 min on ice. The lysates were centrifuged at 12,000×g for 15 min to remove debris. Protein samples were resolved using a […] Novex gradient gel (Invitrogen, USA), electrotransferred onto a nitrocellulose membrane, and blocked with 10% skim milk. Monoclonal antibodies of phosphorylated p-53 (Cat. No, Chemicon, CA, USA) were used to detect phosphor-p53 protein using chemiluminescent ECL assay kit (Amersham Pharmacia Biosciences, NJ, USA) according to the manufacturer's instructions. Western blot bands were quantified using ImageMaster software (Amersham Pharmacia Biosciences, NJ, USA). The result was represented in FIG. 8."}, "p53 gene": {"tested_on": "p53 gene", "test": "p53-luc gene reporter assay", "assay_type": "cell-based, mouse", "details": "B16F1 cells", "description": "as §4"}, "[3]": {"tested_on": "colon cancer cell (SW480), lung cancer cell (A549), mouse melanoma cell (B16F1), leukemia cancer cell (HL60) and liver cancer cell (Hep3B)", "test": "MTT cell viability assay on various cancer cells", "assay_type": "cell-based", "details": "after 36 h of treatment; effect concentration dependent; serum free media", "description": "as §2, §3"}, "p21": {"tested_on": "p21", "test": "RT-PCR of p21 mRNA", "assay_type": "cell-based, mouse", "details": "B16F1 cells; time dependant", "description": "as §1"}, "B16F1 cells [4]": {"tested_on": "B16F1 cells", "test": "Detection of apoptosis by DNA fragmentation assay", "assay_type": "cell-based, mouse", "description": "In order to examine anticancer effect and mechanism of QAGlc, B16F1 cells cultured in 10 cm culture dishes were pre-treated with different concentrations of QAGlc and apoptosis was induced with 2 mM H2O2. Then, cell incubation was performed for different time periods. Cell was rinsed and total DNA was extracted with the standard procedure. DNA was electrophoresed on a 2% agarose gel and DNA fraction was visualized using ethedium bromide staining. The result was represented in FIG. 3.\nB16F1 cells cultured in 10 cm culture dishes were pretreated with different concentrations of QAGlc and apoptosis was induced with 2 mM H2O2. After incubating for 48 h, genomic DNA was extracted and electrophoresed on a 2% agarose gel. The result was represented in FIG. 4."}, "[5]": {"details": "after 24 h and 36 h of incubation"}}, "data": [{"smiles": "C[N+](C)(C)CC(O)CNC1[C@H](O)OC(CO)[C@@H](O)[C@H]1O", "note": "(stereo partly drawn) [QAGlc, quaternized amino glucosamine]", "values": [{"measurement": "p53 transcription", "setting": "p53; [5]", "value": "up-regulated"}, {"measurement": "p53 transcription compared with etoposide", "setting": "p53; [5]", "value": "much higher than that of etoposide"}, {"measurement": "induction of p53 gene (RT-PCR products)", "setting": "p53; time dependant", "value": "induction of p53 and p21 genes in time dependant manner"}, {"measurement": "production of apoptotic cells", "setting": "B16F1 cells [1]", "value": "increase the production of apoptotic cells"}, {"measurement": "anticancer effect (cytotoxicity, MTT)", "setting": "B16F1 cells [2]", "value": "clear anticancer effect was observed"}, {"measurement": "p21 gene expression (relative luciferase activity)", "setting": "p21 gene", "value": "significantly enhanced"}, {"measurement": "phospho p53 protein level", "setting": "phospho p53 protein", "value": "increase phospho p53 protein level in a time dependant manner"}, {"measurement": "p53 gene expression effect relative to etaposide", "setting": "p53 gene; 100 μg/ml", "value": 2, "unit": "fold"}, {"measurement": "p53 gene expression (luciferase reporter)", "setting": "p53 gene; different concentrations", "value": "up-regulated dose dependently"}, {"measurement": "anticancer effect (cell cytotoxicity, MTT)", "setting": "[3]", "value": "clear anticancer effect"}, {"measurement": "induction of p21 gene (RT-PCR products)", "setting": "p21", "value": "induction of p53 and p21 genes in time dependant manner"}, {"measurement": "incubation time after which DNA damage was first observed", "setting": "B16F1 cells [4]; 100 μg/ml, apoptosis induced with 2 mM H2O2", "value": 36, "unit": "h"}, {"measurement": "DNA damage (DNA fragmentation)", "setting": "B16F1 cells [4]; 48 h incubation, 100 μg/ml", "value": "higher DNA damage"}, {"measurement": "DNA damage (DNA fragmentation)", "setting": "B16F1 cells [4]; 48 h incubation, different concentrations, 2 mM H2O2", "value": "higher DNA damage dose-dependently"}, {"measurement": "DNA damage (DNA fragmentation)", "setting": "B16F1 cells [4]; prolonged incubation (after 36 h), all tested concentrations", "value": "clear effect DNA damage by all the tested concentrations dose-dependently"}]}]}
